Laboratory results as given in patent US20060147400A1, “Composition, especially a cosmetic composition, containing at least one alkyl para-hydroxybenzoate and at least one lipophilic amino acid derivative” (L'Oreal, priority 2002, published 2006).

Assay: Solubility of alkyl para-hydroxybenzoates in a solubilizer/solvent (80° C., stirring one hour, dissolution monitored over time)
Type: physicochemical
Settings: comparative; same amount (60% by weight) in water, conventionally used solvent
Method: Protocol: The alkyl para-hydroxybenzoates are weighed out and placed in a hermetic pill bottle. The required amount of lipophilic amino acid derivative (solubilizer) is added. The suspension is brought to 80° C. and stirred. by magnetic stirring for one hour. The dissolution or non-dissolution of the alkyl para-hydroxybenzoate and its change over time are then monitored. The insolubility of the alkyl para-hydroxybenzoate in the solubilizer is characterized macroscopically by a precipitate or just a cloudy solution, and microscopically by the presence of crystals.

CCCOC(=O)c1ccc(O)cc1 [propyl para-hydroxybenzoate]
dissolution or non-dissolution in water: formation of insoluble crystals and a paste
